In patent US20230018765A1, “A 19-NOR C3,3-DISUBSTITUTED C21-N-PYRAZOLYL STEROID AND METHODS OF USE THEREOF” (Sage Therapeutics, Inc., priority 2019, published 2023):

Key:
[1] = tested on: subjects with MDD; test: HAM-D course after a Compound 1 treatment cycle (response/remission at Day 15, HAM-D at Day 42); type: in vivo, human
[2] = tested on: GABAA receptors; test: modulation of GABAA receptors; settings: synaptic and extrasynaptic GABAA receptors
[3] = tested on: subjects with MDD; test: Phase 2 study in subjects with MDD / previous clinical trials of Compound 1
[4] = tested on: adult patients diagnosed with MDD (MADRS total score ≥32 and a HAM-D total score ≥22); test: double-blind, randomized placebo-controlled Phase 3 study of Compound 1 in Major Depressive Disorder (efficacy by HAM-D total score, safety and tolerability); type: in vivo, human; settings: for overall incidence of patients who experienced AEs: 14-day treatment period and 28-day follow up, placebo 48.9%; for AE incidence: Fatigue: placebo 2.6%; for AE incidence: Sedation / subjects having treatment emergent AEs leading to study drug discontinuation: placebo 3.2%; for AE incidence: Dizziness: placebo 3.7%; for AE incidence: Somnolence: placebo 4.2%; for AE incidence: Nausea: placebo 4.7%; for AE incidence: Diarrhea: placebo 5.3%; for AE incidence: Headache: treatment period and 28-day follow up, placebo 7.4%
Protocol: Compound 1 was evaluated in a double-blind, randomized placebo-controlled Phase 3 study in Major Depressive Disorder (MDD). The evaluated the efficacy, safety and pharmacokinetics of Compound 1 in adult patients diagnosed with MDD (MADRS total score ≥32 and a HAM-D total score ≥22).
Compound 1 was administered to a patient, either in 20 mg daily doses once a day for 14 days or 30 mg once a day for 14 days.

[5] = among subjects achieving remission or response at Day 15, Day 42

## C[C@@]1(O)CC[C@H]2[C@H](CC[C@@H]3[C@@H]2CC[C@]2(C)[C@@H](C(=O)Cn4cc(C#N)cn4)CC[C@@H]32)C1 [Compound 1]
[1]; Day 15
  subjects achieving remission or response at Day 15: 78.6%
[1]; [5]
  subjects with HAM-D≥22 at Day 42: 6.1%
  subjects with a HAM-D score of 16 to 21 at Day 42: 18.2%
[2]
  mode of action at GABAA receptors: positive allosteric modulator of GABAA receptors
[3]; 30 mg per day
  efficacy in a Phase 2 study in subjects with MDD: efficacious
  tolerability in a Phase 2 study in subjects with MDD: well-tolerated
[3]; administered in the morning
  adverse effect in previous clinical trials, morning administration: sedation/somnolence observed
[3]; given in the evening
  tolerability in previous clinical trials, evening administration: improved tolerability
[4]; 20 mg once a day for 14 days
  separation from placebo (HAM-D) of the 20 mg dose: did not separate from placebo
[4]; 20 mg or 30 mg once a day for 14 days
  tolerability in the trial: generally well tolerated
[4]; 20 mg
  overall incidence of patients who experienced AEs: 50.0%
  AE incidence: Fatigue: 1.6%
  AE incidence: Sedation: 5.9%
  subjects having treatment emergent AEs leading to study drug discontinuation: 1.6%
  AE incidence: Dizziness: 7.4%
  AE incidence: Somnolence: 5.9%
  AE incidence: Nausea: 5.3%
  AE incidence: Diarrhea: 5.9%
  AE incidence: Headache: 11.2%
[4]; 20 mg, SAEs related to cocaine ingestion, Day 39
  patients who reported SAEs during follow-up: one
[4]; 30 mg (n=166)
  onset of effect (HAM-D vs placebo): beginning at Day 3
[4]; 30 mg (n=166) vs placebo (n=157), Day 3, p=0.016
  LS Mean Difference from placebo, HAM-D total score, Day 3: −1.6
[4]; 30 mg (printed 30 rug)
  AE incidence: Diarrhea: 6.3%
[4]; 30 mg once a day for 14 days, Day 15, placebo 11.2
  reduction in depressive symptoms in the HAM-D total score at Day 15 (primary endpoint): 12.6
[4]; 30 mg vs placebo, post-hoc, p=0.017
  LS Mean Difference, HAM-D total score at Day 15, patients with measurable drug concentrations and HAM-D≥24: −2.6
[4]; 30 mg vs placebo, post-hoc, p=0.032
  LS Mean Difference, HAM-D total score at Day 15, patients with HAM-D≥24: −2.3
[4]; 30 mg vs placebo, post-hoc, p=0.048
  LS Mean Difference, HAM-D total score at Day 15, patients with measurable drug concentrations: −1.8
[4]; 30 mg
  overall incidence of patients who experienced AEs: 54.2%
  AE incidence: Fatigue: 6.8%
  AE incidence: Sedation: 4.7%
  subjects having treatment emergent AEs leading to study drug discontinuation: 2.1%
  AE incidence: Dizziness: 5.7%
  AE incidence: Somnolence: 6.8%
  AE incidence: Nausea: 3.6%
  AE incidence: Headache: 6.3%
[4]; 30 mg, Day 8, p=0.008
  LS Mean Difference from placebo, HAM-D total score, Day 8: −2.1
[4]; 30 mg, Day 12, p=0.018
  LS Mean Difference from placebo, HAM-D total score, Day 12: −2.1
[4]; 30 mg, Day 15, p=0.115
  LS Mean Difference from placebo, HAM-D total score, Day 15: −1.4
[4]; 30 mg, Day 42, p=0.807
  LS Mean Difference from placebo, HAM-D total score, Day 42: −0.5
[4]; 30 mg, Day 42, placebo −11.7
  Change from baseline in HAM-D total score at Day 42: −11.9
[4]; 30 mg, post-hoc, n=124, placebo −11.4
  Change from baseline in HAM-D total score at Day 15, patients with HAM-D≥24: −13.7
[4]; 30 mg, post-hoc, n=151, placebo −11.2
  Change from baseline in HAM-D total score at Day 15, patients with measurable drug concentrations: −13.0
[4]; 30 mg, post-hoc, placebo −11.4
  Change from baseline in HAM-D total score at Day 15, patients with measurable drug concentrations and HAM-D≥24: −14.0
[4]; 30 mg, suicide attempt Day 5, bile duct stone after Day 2
  patients who experienced serious adverse events (SAEs) during treatment: Two
[4]; 30 mg, syncope and associated injuries, Day 28
  patients who reported SAEs during follow-up: one
[4]; all treatment groups, through Day 42
  durability of improvements in depressive symptoms, double-blind portion: sustained in all treatment groups through Day 42
[4]; any group
  AEs of loss of consciousness: no ABs of loss of consciousness
[4]; compared to baseline
  suicidal ideation or suicidal behavior by Columbia Suicide Severity Rating Scale (C-SSRS): no signal fir increased suicidal ideation or suicidal behavior
[4]; patients who completed long-term follow-up up to 6 months, preliminary data
  durability of improvement in depressive symptoms, long-term follow-up: maintenance of improvement in depressive symptoms
